Assay results as given in ChEMBL document CHEMBL1159363, “New cytotoxic alkaloids from the wood of Vepris punctata from the Madagascar rainforest” (J Nat Prod, 2003).
≈ marks a conversion by molar mass, not a printed value.

system: A2780; assay: Cytotoxicity against human A2780 cells; format: functional, cell-based

`COc1ccc2c(OC)c3ccoc3nc2c1OC` [SKIMMIANINE] and `COc1cc2nc3occc3c(OC)c2cc1OC` [KOKUSAGININE] are within 1.5-fold of each other in IC50: 4.2 µg/mL (≈ 16.2 µM) for the first, 3.5 µg/mL (≈ 13.5 µM) for the second.

`COc1c2ccoc2nc2c(OC)c3c(cc12)OCO3` [FLINDERSIAMINE] and `COc1c2c(cc3nc4occc4c(OC)c13)OCO2` are within 1.5-fold of each other in IC50: 3.3 µg/mL (≈ 12.1 µM) for the first, 2.8 µg/mL (≈ 10.2 µM) for the second.

`COc1c2c(c(OC)c3c(OC)c4ccoc4nc13)OCO2` and `COc1c(OC)c(OC)c2c(OC)c3ccoc3nc2c1OC` are within 1.5-fold of each other in IC50: 3.5 µg/mL (≈ 11.5 µM) for the first, 3.4 µg/mL (≈ 10.6 µM) for the second.

Molecule `COc1c2cc3c(cc2nc2occc12)OCO3` [MACULINE] has an IC50 of 4 µg/mL (≈ 16.4 µM).
